# Calls of active or inactive are those of the source. The rule behind the calls is not given here.
# What was measured:
# Streptococcus pneumoniae [1] = test: Antibacterial activity against Streptococcus pneumoniae Erm 5399; assay type: functional
# Streptococcus pneumoniae [2] = test: Antibacterial activity against Streptococcus pneumoniae Mef 6966; assay type: functional
# Streptococcus pneumoniae [3] = test: Antibacterial activity against Streptococcus pneumoniae Mef 1556; assay type: functional
# Streptococcus pneumoniae [4] = test: Antibacterial activity against Streptococcus pneumoniae Mef 3855; assay type: functional
# Streptococcus pneumoniae [5] = test: Antibacterial activity against Streptococcus pneumoniae Erm 3120; assay type: functional
# Streptococcus pneumoniae [6] = test: Antibacterial activity against Streptococcus pneumoniae Mef 2880; assay type: functional
# Streptococcus pneumoniae [7] = test: Antibacterial activity against Streptococcus pneumoniae Mef 3449; assay type: functional
# Streptococcus pneumoniae [8] = test: Antibacterial activity against Streptococcus pneumoniae Erm 8339; assay type: functional
# Streptococcus pneumoniae [9] = test: Antibacterial activity against Streptococcus pneumoniae Erm S 4085; assay type: functional
# Enterococcus faecalis [10] = test: Antibacterial activity against Enterococcus faecalis 29212; assay type: functional
# Streptococcus pneumoniae [11] = test: Antibacterial activity against Streptococcus pneumoniae 280-962; assay type: functional
# Streptococcus pneumoniae [12] = test: Antibacterial activity against Streptococcus pneumoniae Erm 8947; assay type: functional
# Streptococcus pneumoniae [13] = test: Antibacterial activity against Streptococcus pneumoniae Mef S 3427; assay type: functional
# Streptococcus pneumoniae [14] = test: Antibacterial activity against Streptococcus pneumoniae Erm S 4297; assay type: functional
# Streptococcus pneumoniae [15] = test: Antibacterial activity against Streptococcus pneumoniae Mef 2382; assay type: functional
# Streptococcus pneumoniae [16] = test: Antibacterial activity against Streptococcus pneumoniae Erm 5590; assay type: functional
# Streptococcus pneumoniae [17] = test: Antibacterial activity against Streptococcus pneumoniae Erm 5415; assay type: functional
# [18] = Lung-to-plasma AUC ratio in Sprague-Dawley rat at 5 mg/kg, iv; assay type: ADME, organism-based; design: dose 5 mg/kg, route intravenous; details: lung and plasma
# Streptococcus pneumoniae [19] = test: Antibacterial activity against Streptococcus pneumoniae Mef 1566; assay type: functional
# Streptococcus pneumoniae [20] = test: Antibacterial activity against Streptococcus pneumoniae Mef 9142; assay type: functional
# Streptococcus pneumoniae [21] = test: Antibacterial activity against Streptococcus pneumoniae Erm 6849; assay type: functional
# Streptococcus pneumoniae [22] = test: Antibacterial activity against Streptococcus pneumoniae Mef 4126; assay type: functional
# Streptococcus pneumoniae [23] = test: Antibacterial activity against Streptococcus pneumoniae 49619; assay type: functional
# Streptococcus pneumoniae [24] = test: Antibacterial activity against Streptococcus pneumoniae Mef 10095; assay type: functional
# Streptococcus pneumoniae [25] = test: Antibacterial activity against Streptococcus pneumoniae Erm 867; assay type: functional
# Streptococcus pneumoniae [26] = test: Antibacterial activity against Streptococcus pneumoniae Erm 4589; assay type: functional
# Streptococcus pneumoniae [27] = test: Antibacterial activity against Streptococcus pneumoniae Mef 4331; assay type: functional
# Streptococcus pneumoniae [28] = test: Antibacterial activity against Streptococcus pneumoniae Erm 6388; assay type: functional
# Streptococcus pneumoniae [29] = test: Antibacterial activity against Streptococcus pneumoniae Mef 5649; assay type: functional
# Haemophilus influenzae [30] = test: Antibacterial activity against Haemophilus influenzae 49247; assay type: functional
# Haemophilus influenzae [31] = test: Antibacterial activity against Haemophilus influenzae 2762; assay type: functional
# Streptococcus pneumoniae [32] = test: Antibacterial activity against Streptococcus pneumoniae Erm 7985; assay type: functional
# Streptococcus pneumoniae [33] = test: Antibacterial activity against Streptococcus pneumoniae Mef 41; assay type: functional
# [34] = Oral bioavailability in Sprague-Dawley rat at 100 mg/kg, po; assay type: ADME, organism-based; details: in vivo
# [35] = Volume of distribution in Sprague-Dawley rat at 5 mg/kg, iv and 15 mg/kg, po; assay type: ADME, organism-based; details: in vivo, read-out: Vdss
# Streptococcus pneumoniae [36] = test: Antibacterial activity against Streptococcus pneumoniae Mef S 3435; assay type: functional
# Rattus norvegicus [37] = test: Efficacy against Haemophilus influenzae in Sprague-Dawley rat lung infection model at 100 mg/kg; assay type: functional, organism-based; design: dose 100 mg/kg
# [38] = Clearance in Sprague-Dawley rat at 5 mg/kg, iv and 15 mg/kg, po; assay type: ADME, organism-based; details: in vivo
# Streptococcus pneumoniae [39] = test: Antibacterial activity against Streptococcus pneumoniae Mef 983; assay type: functional
# Streptococcus pneumoniae [40] = test: Antibacterial activity against Streptococcus pneumoniae Erm 2218; assay type: functional
# Streptococcus pneumoniae [41] = test: Antibacterial activity against Streptococcus pneumoniae Erm 8919; assay type: functional
# [42] = test system: Staphylococcus epidermidis; test: Antibacterial activity against Staphylococcus epidermidis f50654; assay type: functional
# Streptococcus pneumoniae [43] = test: Antibacterial activity against Streptococcus pneumoniae Mef 9959; assay type: functional
# Streptococcus pneumoniae [44] = test: Antibacterial activity against Streptococcus pneumoniae Mef 1790; assay type: functional
# Streptococcus pneumoniae [45] = test: Antibacterial activity against Streptococcus pneumoniae Mef 953; assay type: functional
# Streptococcus pneumoniae [46] = test: Antibacterial activity against Streptococcus pneumoniae Mef 5654; assay type: functional
# Streptococcus pneumoniae [47] = test: Antibacterial activity against Streptococcus pneumoniae Erm 5554; assay type: functional
# Rattus norvegicus [48] = test: Efficacy against Streptococcus pneumoniae Mef in Sprague-Dawley rat lung infection model at 100 mg/kg; assay type: functional, organism-based; design: dose 100 mg/kg
# Streptococcus pneumoniae [49] = test: Antibacterial activity against Streptococcus pneumoniae Erm 10279; assay type: functional
# Streptococcus pneumoniae [50] = test: Antibacterial activity against Streptococcus pneumoniae 297-749; assay type: functional
# [51] = test system: Staphylococcus epidermidis; test: Antibacterial activity against Staphylococcus epidermidis 14990; assay type: functional
# Staphylococcus aureus [52] = test: Antibacterial activity against Staphylococcus aureus 29213; assay type: functional
# [53] = Lung half life in Sprague-Dawley rat at 15 mg/kg, po; assay type: ADME, organism-based; design: dose 15 mg/kg, route oral
# Streptococcus pneumoniae [54] = test: Antibacterial activity against Streptococcus pneumoniae Erm 4290; assay type: functional
# Enterococcus faecalis [55] = test: Antibacterial activity against Enterococcus faecalis bc11148-2; assay type: functional
# Streptococcus pyogenes = test: Antibacterial activity against Streptococcus pyogenes 8668; assay type: functional
# Rattus norvegicus [56] = test: Efficacy against Streptococcus pneumoniae Erm in Sprague-Dawley rat lung infection model at 100 mg/kg; assay type: functional, organism-based; design: dose 100 mg/kg
# Streptococcus pneumoniae [57] = test: Antibacterial activity against Streptococcus pneumoniae Erm 8257; assay type: functional
# Streptococcus pneumoniae [58] = test: Antibacterial activity against Streptococcus pneumoniae Erm 6396; assay type: functional
# Streptococcus pneumoniae [59] = test: Antibacterial activity against Streptococcus pneumoniae Erm 5354; assay type: functional
# Staphylococcus aureus [60] = test: Antibacterial activity against Staphylococcus aureus 33591; assay type: functional
smiles,measurement,setting,value
CC[C@H]1OC(=O)[C@H](C)C(=O)[C@H](C)[C@@H](O[C@@H]2O[C@H](C)C[C@H](N(C)C)[C@H]2O)[C@](C)(OC)C[C@@H](C)C(=O)[C@H](C)[C@H]2N(CCCCn3cnc(-c4cccnc4)c3)C(=O)O[C@]12C [TELITHROMYCIN],MIC,Streptococcus pneumoniae [1],≤ 0.013 µg/mL
same,MIC,Streptococcus pneumoniae [2],0.25 µg/mL
same,MIC,Streptococcus pneumoniae [3],0.13 µg/mL
same,MIC,Streptococcus pneumoniae [4],0.25 µg/mL
same,MIC,Streptococcus pneumoniae [5],0.1 µg/mL
same,MIC,Streptococcus pneumoniae [6],0.13 µg/mL
same,MIC,Streptococcus pneumoniae [7],0.25 µg/mL
same,MIC,Streptococcus pneumoniae [8],0.78 µg/mL
same,MIC,Streptococcus pneumoniae [9],≤ 0.013 µg/mL
same,MIC,Enterococcus faecalis [10],≤ 0.05 µg/mL
same,MIC,Streptococcus pneumoniae [11],≤ 0.05 µg/mL
same,MIC,Streptococcus pneumoniae [12],0.1 µg/mL
same,MIC,Streptococcus pneumoniae [13],0.13 µg/mL
same,MIC,Streptococcus pneumoniae [14],0.1 µg/mL
same,MIC,Streptococcus pneumoniae [15],0.25 µg/mL
same,MIC,Streptococcus pneumoniae [16],≤ 0.013 µg/mL
same,MIC,Streptococcus pneumoniae [17],0.025 µg/mL
same,Kp,[18],16
same,MIC,Streptococcus pneumoniae [19],0.5 µg/mL
same,MIC,Streptococcus pneumoniae [20],0.5 µg/mL
same,MIC,Streptococcus pneumoniae [21],0.2 µg/mL
same,MIC,Streptococcus pneumoniae [22],0.06 µg/mL
same,MIC,Streptococcus pneumoniae [23],≤ 0.05 µg/mL
same,MIC,Streptococcus pneumoniae [24],0.06 µg/mL
same,MIC,Streptococcus pneumoniae [25],0.025 µg/mL
same,MIC,Streptococcus pneumoniae [26],0.025 µg/mL
same,MIC,Streptococcus pneumoniae [27],1 µg/mL
same,MIC,Streptococcus pneumoniae [28],0.78 µg/mL
same,MIC,Streptococcus pneumoniae [29],0.5 µg/mL
same,MIC,Haemophilus influenzae [30],3.13 µg/mL
same,MIC,Haemophilus influenzae [31],0.4 µg/mL
same,MIC,Streptococcus pneumoniae [32],≤ 0.013 µg/mL
same,MIC,Streptococcus pneumoniae [33],0.13 µg/mL
same,bioavailability,[34],84%
same,Vd,[35],5 L/kg
same,MIC,Streptococcus pneumoniae [36],0.06 µg/mL
same,Activity,Rattus norvegicus [37],inactive
same,clearance,[38],100 mL/min/kg
same,MIC,Streptococcus pneumoniae [39],0.5 µg/mL
same,MIC,Streptococcus pneumoniae [40],0.025 µg/mL
same,MIC,Streptococcus pneumoniae [41],0.025 µg/mL
same,MIC,[42],0.1 µg/mL
same,MIC,Streptococcus pneumoniae [43],0.25 µg/mL
same,MIC,Streptococcus pneumoniae [44],0.5 µg/mL
same,MIC,Streptococcus pneumoniae [45],0.13 µg/mL
same,MIC,Streptococcus pneumoniae [46],0.5 µg/mL
same,MIC,Streptococcus pneumoniae [47],0.2 µg/mL
same,Activity,Rattus norvegicus [48],inactive
same,MIC,Streptococcus pneumoniae [49],0.025 µg/mL
same,MIC,Streptococcus pneumoniae [50],≤ 0.05 µg/mL
same,MIC,[51],0.1 µg/mL
same,MIC,Staphylococcus aureus [52],0.1 µg/mL
same,half-life,[53],1.3 h
same,MIC,Streptococcus pneumoniae [54],≤ 0.013 µg/mL
same,MIC,Enterococcus faecalis [55],0.4 µg/mL
same,MIC,Streptococcus pyogenes,≤ 0.05 µg/mL
same,Activity,Rattus norvegicus [56],inactive
same,MIC,Streptococcus pneumoniae [57],≤ 0.013 µg/mL
same,MIC,Streptococcus pneumoniae [58],0.1 µg/mL
same,MIC,Streptococcus pneumoniae [59],0.025 µg/mL
same,MIC,Staphylococcus aureus [60],> 50 µg/mL

# Source: ChEMBL document CHEMBL1138190, “Synthesis and antibacterial activity of novel C12 vinyl ketolides” (J Med Chem, 2006)
